The source of these data is US7951905B2, “Synthesis of carbohydrate-templated amino acids and methods of using same” (University of Manitoba, priority 2006, dated 2011).

SMILES strings stand for the structures.

Data set [1] can be described thus: Trans/cis ratio (Kt/c) of prolyl amide isomers by 500 MHz NMR. It is filed as physicochemical. The protocol: For each of 11-13, the ratio of trans/cis isomers was calculated by integrating as many well-resolved peaks as possible for each isomer, and taking the average of over all peaks for respective isomers (Taylor et al., 2003). The assignment of N-terminal amide geometry for both major and minor isomers of 11-16 was based on multiple GOESY experiments (Stronehouse et al., 1994).
Experiments were undertaken to determine the Kt/c effect of certain fused bicyclic sugar-proline-containing peptides. A very similar profile of Kt/c for the Ac-Gly-GlcPro-NHMe model compounds 14-16 compared to the Ac-GlcPro-NHMe model compounds 11-13 (Table 1) was observed. In CD3OD, there was an increase in the cis-content as the sugar substituent changed from benzyl 14 (<3%), to hydroxyl 15 (15%), to acetate 16 (25%).

The conditions of data set [2]: D2O; n.s. = not soluble (footnote b).

Turning to `CNC(=O)[C@@H]1C[C@H]2O[C@H](COCc3ccccc3)[C@H](OCc3ccccc3)[C@@H](OCc3ccccc3)[C@H]2N1C(=O)CNC(C)=O` [Compound 14, N-Acetyl-glycyl-(2S,3aR,5R,6R,7S,7aS)-6,7-di-O-benzyl-octahydro-5-(phenylmethyl hydroxymethyl)-pyrano[3,2-b]pyrrole-2-carboxamide N′-methylamide], in data set [1] (CD3OD, 500 MHz NMR at 25° C.), the “% cis isomer” value is listed as less than 3% and the “Trans/cis ratio (Kt/c)” value is on record as greater than 30. In data set [1] (CDCl3, 500 MHz NMR at 25° C.), the “% cis isomer” value is recorded as 5% and the “Trans/cis ratio (Kt/c)” value came to 19. Also, in data set [2], the solubility in solvent result was “n.s.^[b]”.

On to `CNC(=O)[C@@H]1C[C@H]2O[C@H](COC(C)=O)[C@H](OC(C)=O)[C@@H](OC(C)=O)[C@H]2N1C(=O)CNC(C)=O` [Compound 16, N-Acetyl-glycyl-(2S,3aR,5R,6R,7S,7aS)-6,7-di-O-acetyl-5-(hydroxymethyl-O-acetyl)-octahydro-pyrano[3,2-b]pyrrole-2-carboxamide N′-methylamide], for which, in data set [1] (CD3OD, 500 MHz NMR at 25° C.), the “% cis isomer” value is 25% and the “Trans/cis ratio (Kt/c)” value was found to be 3. In data set [1] (CDCl3, 500 MHz NMR at 25° C.), the “% cis isomer” value was 20% and the “Trans/cis ratio (Kt/c)” value is recorded as 4.

Regarding `CNC(=O)[C@@H]1C[C@H]2O[C@H](CO)[C@H](O)[C@@H](O)[C@@H]2N1C(=O)CNC(C)=O` [Compound 15, N-Acetyl-glycyl-(2S,3aR,5R,6R,7S,7aS)-6,7-dihydroxy-5-(hydroxymethyl)-octahydro-pyrano[3,2-b]pyrrole-2-carboxamide N′-methylamide], in data set [1] (CD3OD, 500 MHz NMR at 25° C.), the “% cis isomer” value is 15% and the “Trans/cis ratio (Kt/c)” value amounted to 5.7. Besides, in data set [1] (D2O, 500 MHz NMR at 25° C.), the “% cis isomer” value is given as 10% and the “Trans/cis ratio (Kt/c)” value is recorded as 9.
